Measurements taken from US5877210A, “Phosphotyrosine phosphatase inhibitors or phosphotyrosine kinase activators for controlling cellular proliferation” (priority 1995, dated 1999).
Several values for one entry are separate records, joined by “and”; a condition that tells them apart may be missing. Equal values may be shown once. Entries after “also recorded” stand apart in the source; their conditions may differ.

Columns and labels:
[1] = test system: CEM; test: Anti-phosphotyrosine immunoblot; assay type: cell-based, human; conditions: 16 hr
[2] = test system: HL-60 cells; test: Anti-phosphotyrosine immunoblot; assay type: cell-based, human
[3] = test system: BCL1; test: [3H]thymidine incorporation assay; assay type: cell-based, murine; conditions: for [3H]cpm incorporation: seven days
Method: For each cell type, the cells were passaged uniformly for all drug doses given during the seven-day period. The cells were then pulsed for six hours with [^3 H]thymidine. The extent of DNA synthesis was then determined by counting the radioactivity incorporated into the cells.
For assays of cellular proliferation, cells were grown five days in the presence of the indicated concentrations of BMLOV, pulsed 6 hr with [^3 H]-thymidine (New England Nuclear, Boston, Mass.), and counted in a liquid scintillation counter. Human peripheral blood lymphocytes (PBL) from normal volunteers were isolated from lymphocyte separation medium (Litton Bionetics, Kensington, Md.) by density gradient centrifugation. Monocytes were depleted from PBL by two rounds of plastic absorption for 30 minutes at 37° C. B cells were enriched for by negative selection using complement plus monoclonal antibodies to CD2, CD3, CD4, and CD8 for complement depletion. Clonogenic assays of colony formation in methylcellulose medium were performed as previously described (F. M. Uckun et al. (1992), supra).

[4] = test system: antibody-producing B cells; test: Class-switching: Ig production by anti-CD40 + IL-4 treated B cells; assay type: cell-based, human
Method: The effects of BMLOV were assayed on class-switching in antibody-producing B cells. Human B cells producing antibody were treated with anti-CD40 antibody plus IL-4, which increased production of IgE over 10-fold (Table 7). […] In contrast, the production of IgG1 and IgG4 was much less affected, particularly at a dose of 5.6 μM BMLOV. This selective effect is important because the IgG antibody production is an important response to infectious disease. It would be of value to suppress IgE production for the treatment of allergies while maintaining IgG production, particularly in conditions in which an allergy coexists with an infectious disease. A common example is the exacerbation of allergic rhinitis (hay fever) as the result of a respiratory infection.

[5] = test system: ZAP-70; test: ZAP-70 tyrosine phosphorylation in T cells; assay type: cell-based; conditions: 16 h BMLOV, anti-CD3 stimulation
Method: In the experiments shown in FIG. 25, human PHA-induced T cell blasts were treated overnight with the indicated concentrations of BMLOV. In Panel A, the baseline level of intracellular free Ca^2+ ([Ca^2+ ]i) was established for 1 min, and then the cells were treated with biotinylated anti-CD3 mAb (G19-4). After 5 min avidin was added (gap in the trace) to cross-link the antibody. In Panel B, assays were performed as in Panel A, but in the presence of 5 mM EGTA. […] In the experiments shown in FIG. 26, cells were treated 16 h with BMLOV and then stimulated with anti-CD3 mAb G19-4 for 5 min. Cells were then washed and resuspended in fresh media at equal concentrations of BMLOV at 37° C. Cells were then harvested and lysed at times following the initiation of CD3 stimulation as indicated. Antibody binding in immunoblots was detected by ECL.

[6] = test system: 70Z/3 B cell leukemia cell line; test: [3H]thymidine incorporation assay; assay type: cell-based, murine; conditions: 702/3, 5 days
Method: (§1) The cell lines A20, 70Z-3, L1210, and P388D were used. A20 is a B cell lymphoma cell line; 70Z/3 is a B cell leukemia cell line; L1210 is a T cell leukemia cell line; and P388D is a myeloid leukemia cell line. The cells were grown for 5 days in the presence of pV(phen) and pulsed with [^3 H]-thymidine on day 5. The extent of DNA synthesis was then determined by counting the radioactivity incorporated into the cells, as in Example 5, supra. […] The effects on L1210 cells and P388D cells are particularly noteworthy because these cell lines have been extensively used by the National Cancer Institute to identify anti-cancer drugs.

[7] = test system: L1210; test: [3H]thymidine incorporation assay; assay type: cell-based, murine; conditions: 5 days
Method: as §1

[8] = test system: P388D; test: [3H]thymidine incorporation assay; assay type: cell-based, murine; conditions: 5 days
Method: as §1

[9] = test system: peripheral blood lymphocytes; test: Leukocyte counts in mice after pV(phen); assay type: in vivo, BALB/C mice; conditions: one dose i.p.; for Absolute Counts: Eosinophil / Absolute Counts: Lymphocyte / Absolute Counts: Monocyte / Absolute Counts: Neutrophil: blood 24 hr later, individual animals
From the text: BALB/C mice received one dose of pV(phen) i.p. and their blood was examined 24 hr later.

[10] = Anti-CD40 + IL-4 + 0.002 μM BMLOV
[11] = Anti-CD40 + IL-4 + 0.008 μM BMLOV
[12] = Anti-CD40 + IL-4 + 0.02 μM BMLOV
[13] = Anti-CD40 + IL-4 + 0.07 μM BMLOV
[14] = Anti-CD40 + IL-4 + 0.2 μM BMLOV
[15] = Anti-CD40 + IL-4 + 0.6 μM BMLOV
[16] = Anti-CD40 + IL-4 + 1.9 μM BMLOV
[17] = Anti-CD40 + IL-4 + 5.6 μM BMLOV

Cc1occc(=O)c1[O-].Cc1occc(=O)c1[O-].[O]=[V+2] [BMLOV, Bis(maltolato)oxovanadium (IV)]
induction of tyrosine phosphorylation [1]: only low levels of tyrosine phosphorylation | tyrosine phosphorylation response [2]: showed a tyrosine phosphorylation response; also recorded: strong tyrosine phosphorylation was observed | [3H]cpm incorporation ([3]; 1 μM BMLOV): 265036 cpm | [3H]cpm incorporation ([3]; 5 μM BMLOV): 226714 cpm | [3H]cpm incorporation ([3]; 10 μM BMLOV): 55396 cpm | [3H]cpm incorporation ([3]; 25 μM BMLOV): 195 cpm | sensitivity of proliferation to BMLOV, in words ([3]; 25 μM, 5 or 7 days): highly sensitive | increased production of IgE, in words ([4]; 5.6 or 17 μM BMLOV): markedly inhibited | [Ig] IgE [4, 10]: 3.9 ng/mL | [Ig] IgG1 [4, 10]: 450 ng/mL | [Ig] IgG4 [4, 10]: 1.7 ng/mL | [Ig] IgM [4, 10]: 20.4 ng/mL | [Ig] IgE [4, 11]: 2.6 ng/mL | [Ig] IgG1 [4, 11]: 450 ng/mL | [Ig] IgG4 [4, 11]: 1.1 ng/mL | [Ig] IgM [4, 11]: 20.4 ng/mL | [Ig] IgE [4, 12]: 4.5 ng/mL | [Ig] IgG1 [4, 12]: 390 ng/mL | [Ig] IgG4 [4, 12]: 1.3 ng/mL | [Ig] IgM [4, 12]: 19.2 ng/mL | [Ig] IgE [4, 13]: 5.1 ng/mL | [Ig] IgG1 [4, 13]: 450 ng/mL | [Ig] IgG4 [4, 13]: 2.7 ng/mL | [Ig] IgM [4, 13]: 12.0 ng/mL | [Ig] IgE [4, 14]: 7.5 ng/mL | [Ig] IgG1 [4, 14]: 495 ng/mL | [Ig] IgG4 [4, 14]: 1.2 ng/mL | [Ig] IgM [4, 14]: 13.8 ng/mL | [Ig] IgE [4, 15]: 5.7 ng/mL | [Ig] IgG1 [4, 15]: 480 ng/mL | [Ig] IgG4 [4, 15]: 1.3 ng/mL | [Ig] IgM [4, 15]: 17.4 ng/mL | [Ig] IgE [4, 16]: 3.0 ng/mL | [Ig] IgG1 [4, 16]: 450 ng/mL | [Ig] IgG4 [4, 16]: 2.7 ng/mL | [Ig] IgM [4, 16]: 15.6 ng/mL | [Ig] IgE [4, 17]: 1.2 ng/mL | [Ig] IgG1 [4, 17]: 480 ng/mL | [Ig] IgG4 [4, 17]: 1.8 ng/mL | [Ig] IgM [4, 17]: 18.6 ng/mL | [Ig] IgE ([4]; Anti-CD40 + IL-4 + 17 μM BMLOV): 0.8 ng/mL | [Ig] IgG1 ([4]; Anti-CD40 + IL-4 + 17 μM BMLOV): 450 ng/mL | [Ig] IgG4 ([4]; Anti-CD40 + IL-4 + 17 μM BMLOV): 0.8 ng/mL | [Ig] IgM ([4]; Anti-CD40 + IL-4 + 17 μM BMLOV): 18.0 ng/mL | [Ig] IgE ([4]; Anti-CD40 + IL-4 + 50 μM BMLOV): 0.2 ng/mL | [Ig] IgG1 ([4]; Anti-CD40 + IL-4 + 50 μM BMLOV): 60 ng/mL | [Ig] IgG4 ([4]; Anti-CD40 + IL-4 + 50 μM BMLOV): 0.5 ng/mL | [Ig] IgM ([4]; Anti-CD40 + IL-4 + 50 μM BMLOV): 5.1 ng/mL | tyrosine phosphorylation of ZAP-70 or the associated zeta chain [5]: little effect was observed

[Na+].[O]=[V-]12([O][O]1)[O][O]2.c1cnc2c(c1)ccc1cccnc12 [pV(phen), sodium (1,10-phenanthroline) oxodiperoxovanadium (V)]
[3H]-thymidine radioactivity incorporated ([6]; 5 μM pV(phen)): 53 ± 27 | [3H]-thymidine radioactivity incorporated ([6]; 10 μM pV(phen)): 49 ± 34 | [3H]-thymidine radioactivity incorporated ([7]; 5 μM pV(phen)): 244 ± 155 | [3H]-thymidine radioactivity incorporated ([7]; 10 μM pV(phen)): 464 ± 116 | [3H]-thymidine radioactivity incorporated ([8]; 5 μM pV(phen)): 2513 ± 1424 | [3H]-thymidine radioactivity incorporated ([8]; 10 μM pV(phen)): 362 ± 60 | Absolute Counts: Eosinophil ([9]; Dose 1 μM): 244 and 26 | Absolute Counts: Lymphocyte ([9]; Dose 1 μM): 3848 and 1612 | Absolute Counts: Monocyte ([9]; Dose 1 μM): 488 and 104 | Absolute Counts: Neutrophil ([9]; Dose 1 μM): 1525 and 858 | Absolute Counts: Eosinophil ([9]; Dose 2 μM): 78 and 81 | Absolute Counts: Lymphocyte ([9]; Dose 2 μM): 1560 and 2511 | Absolute Counts: Monocyte ([9]; Dose 2 μM): 390 and 0 | Absolute Counts: Neutrophil ([9]; Dose 2 μM): 1872 and 5508 | effect on monocytes, in words ([9]; 24 hr): no consistent effect was observed | number of neutrophils, in words ([9]; 24 hr): substantially increased | number of peripheral blood lymphocytes, in words ([9]; 24 hr): markedly reduced
